EC50 and Ki data for five molecules are collected here from patent US12252524B2, “GIP/GLP1 co-agonist compounds” (Eli Lilly and Company, priority 2018, dated 2025).

Molecules are shown by their SMILES. Numbered stars: 1 amine (or outer) side, 2 acyl side, 3 side chain; on linkers, the order of the positions; unused ones are H or OH. Square brackets hold non-standard residues; d marks the D form. Side chains are listed from the residue outwards. Peptide text beside a SMILES is read from it. * marks the point of attachment. C20 diacid = O=C(O)CCCCCCCCCCCCCCCCCCC(=O)*; γGlu = O=C(O)[C@H](CCC(=O)[*:2])N[*:1]; AEEA = NCCOCCOCC(=O)O; Aib = CC(C)(N)C(=O)O Some results are limits rather than exact numbers.

The target of test [1] is human GLP-1 receptor (GLP-1R) (Homo sapiens, UniProt P43220). Nature of the test: cAMP pharmacological functional assay in presence of casein, hGLP-1R. Format: cell-based. Particulars: HEK293 cells expressing hGLP-1R, 0.1% Casein, geometric mean; read-out: hGLP1R cAMP Rel EC50 nM (SEM, n).
Sequence of human GLP-1 receptor (GLP-1R) (P43220 24-463): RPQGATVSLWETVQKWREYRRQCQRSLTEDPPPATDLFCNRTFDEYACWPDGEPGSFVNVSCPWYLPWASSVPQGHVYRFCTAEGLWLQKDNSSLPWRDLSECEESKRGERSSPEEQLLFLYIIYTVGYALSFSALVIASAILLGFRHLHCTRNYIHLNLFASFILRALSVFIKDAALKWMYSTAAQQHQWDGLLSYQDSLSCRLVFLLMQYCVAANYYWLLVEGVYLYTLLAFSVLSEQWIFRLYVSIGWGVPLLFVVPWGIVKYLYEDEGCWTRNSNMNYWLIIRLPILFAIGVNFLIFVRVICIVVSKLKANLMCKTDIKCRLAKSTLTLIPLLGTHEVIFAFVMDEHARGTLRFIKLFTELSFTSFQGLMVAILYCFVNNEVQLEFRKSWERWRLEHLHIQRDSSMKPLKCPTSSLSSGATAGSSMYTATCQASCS
The next test deals with T1, human GIP receptor (Homo sapiens, UniProt P48546).
T1 construct: expressed in transfected cells; crude membranes
T1 sequence (P48546 22-466): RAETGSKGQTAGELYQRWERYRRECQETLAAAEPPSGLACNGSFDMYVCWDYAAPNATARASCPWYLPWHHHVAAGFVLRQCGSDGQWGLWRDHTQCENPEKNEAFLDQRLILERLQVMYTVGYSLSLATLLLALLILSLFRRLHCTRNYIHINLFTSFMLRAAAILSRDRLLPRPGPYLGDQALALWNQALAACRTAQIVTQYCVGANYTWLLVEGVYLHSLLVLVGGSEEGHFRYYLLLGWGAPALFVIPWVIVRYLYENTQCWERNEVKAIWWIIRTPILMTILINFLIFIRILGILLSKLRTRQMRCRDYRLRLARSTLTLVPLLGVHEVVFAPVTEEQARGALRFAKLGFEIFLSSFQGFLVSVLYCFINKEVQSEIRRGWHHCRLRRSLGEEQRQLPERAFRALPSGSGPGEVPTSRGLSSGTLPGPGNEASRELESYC
Kind of test: [125I]-GIP binding (SPA), human GIP receptor. Particulars: read-out: hGIPR Ki, nM (SEM, n).

Another test concerns the target human GLP-1R (Homo sapiens, UniProt P43220). Kind of test: [125I]-GLP-1 binding (SPA), human GLP-1 receptor. On the set-up: expressed in transfected cells; crude membranes. Particulars: read-out: hGLP1R Ki, (nM) (SEM, n). Summed up: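 Membranes: hypotonic lysis (50 mM Tris HCl, pH 7.5, protease inhibitors), Potter-Elvehjem homogenization, high-speed pellet (35000×g 1 h or 25000×g 30 min, 4° C.). Buffer: 25 mM HEPES pH 7.4, 2.5 mM CaCl2, 1 mM MgCl2. Four-parameter IC50 fit; Ki as geometric mean ± SEM.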

The target of another test is T2, human Gcg receptor (Homo sapiens, UniProt P47871).
T2 construct: expressed in transfected cells; crude membranes
T2 sequence (P47871 26-477): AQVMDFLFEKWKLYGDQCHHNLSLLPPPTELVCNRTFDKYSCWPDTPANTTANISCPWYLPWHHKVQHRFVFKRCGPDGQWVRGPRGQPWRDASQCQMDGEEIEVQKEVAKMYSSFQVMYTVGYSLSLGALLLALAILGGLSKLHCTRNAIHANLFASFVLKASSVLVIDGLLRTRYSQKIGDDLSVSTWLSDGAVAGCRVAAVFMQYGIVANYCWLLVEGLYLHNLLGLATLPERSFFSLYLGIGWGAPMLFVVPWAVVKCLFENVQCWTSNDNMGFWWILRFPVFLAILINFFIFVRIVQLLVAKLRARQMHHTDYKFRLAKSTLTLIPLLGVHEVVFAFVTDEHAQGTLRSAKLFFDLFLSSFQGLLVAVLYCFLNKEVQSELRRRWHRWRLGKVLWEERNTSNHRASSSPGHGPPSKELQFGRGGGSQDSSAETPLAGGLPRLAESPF
Nature of the test: [125I]-Glucagon binding (SPA), human Gcg receptor. Particulars: read-out: hGLcgR Ki, nM (SEM, n). The procedure, abridged:
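Crude membranes from cells expressing the receptor, prepared by hypotonic lysis in 50 mM Tris HCl pH 7.5 with protease inhibitors, homogenization and differential centrifugation, were used in a WGA-bead SPA. Binding buffer: 25 mM HEPES pH 7.4, 2.5 mM CaCl2, 1 mM MgCl2, bacitracin, Tween-20.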

Test [2] deals with T3, gastric inhibitory peptide receptor (GIPR) (Homo sapiens, UniProt P48546).
T3 sequence (P48546 22-466): T1 sequence (P48546 22-466)
Nature of the test: cAMP pharmacological functional assay in presence of casein, hGIPR. Particulars: HEK293 cells expressing hGIPR, 0.1% Casein, geometric mean; read-out: hGIPR cAMP Rel EC50 nM (SEM, n). Format: cell-based.

Sequence of human GLP-1R (P43220 24-463): as the sequence (P43220 24-463) above

In the case of `CC[C@H](C)[C@H](NC(=O)[C@H](CC(C)C)NC(=O)[C@H](Cc1ccc(O)cc1)NC(=O)[C@H](CCC(=O)O)NC(=O)[C@@H](NC(=O)[C@H](Cc1ccccc1)NC(=O)[C@H](C)NC(=O)C(C)(C)NC(=O)[C@H](CCC(N)=O)NC(=O)[C@H](C)NC(=O)[C@H](CCCCNC(=O)COCCOCCNC(=O)COCCOCCNC(=O)CC[C@H](NC(=O)CCCCCCCCCCCCCCCCCCC(=O)O)C(=O)O)NC(=O)[C@H](CCCCN)NC(=O)[C@H](CC(=O)O)NC(=O)[C@H](CC(C)C)NC(=O)[C@H](CC(C)C)NC(=O)[C@@H](NC(=O)[C@H](CO)NC(=O)[C@H](Cc1ccc(O)cc1)NC(=O)[C@H](CC(=O)O)NC(=O)[C@H](CO)NC(=O)[C@@H](NC(=O)[C@H](Cc1ccccc1)NC(=O)[C@@H](NC(=O)CNC(=O)[C@H](CCC(=O)O)NC(=O)C(C)(C)NC(=O)[C@@H](N)Cc1ccc(O)cc1)[C@@H](C)O)[C@@H](C)O)[C@@H](C)CC)[C@@H](C)CC)C(=O)N[C@@H](CCC(=O)O)C(=O)N[C@@H](C)C(=O)NCC(=O)N1CCC[C@H]1C(=O)N[C@@H](CO)C(=O)N[C@@H](CO)C(=O)NCC(=O)N[C@@H](C)C(=O)N1CCC[C@H]1C(=O)N1CCC[C@H]1C(=O)N1CCC[C@H]1C(=O)N[C@@H](CO)C(N)=O` [Example 86] (H-Y[Aib]EGTFTSDYSILLDKK([AEEA-AEEA-γGlu-C20 diacid])AQ[Aib]AFIEYLIEAGPSSGAPPPS-NH2), the figures for the concentration giving a half-maximal response (EC50) in test [1] and in test [2] were 0.271 nM and 0.0452 nM, respectively. Further, the inhibitory constant (Ki) is 0.0401 nM at human GIP receptor, 3.74 nM at human GLP-1R and > 1060 nM on human Gcg receptor.

`CC[C@H](C)[C@H](NC(=O)[C@H](CC(C)C)NC(=O)[C@H](Cc1ccc(O)cc1)NC(=O)[C@H](CCC(=O)O)NC(=O)[C@@H](NC(=O)[C@H](Cc1ccccc1)NC(=O)[C@H](C)NC(=O)C(C)(C)NC(=O)[C@H](CCC(N)=O)NC(=O)[C@H](C)NC(=O)[C@H](CCCCNC(=O)COCCOCCNC(=O)COCCOCCNC(=O)CC[C@H](NC(=O)CCCCCCCCCCCCCCCCCCC(=O)O)C(=O)O)NC(=O)[C@H](CCCCN)NC(=O)[C@H](CC(=O)O)NC(=O)[C@H](CC(C)C)NC(=O)[C@H](CC(C)C)NC(=O)[C@@H](NC(=O)[C@H](CO)NC(=O)[C@H](Cc1ccc(O)cc1)NC(=O)[C@H](CC(=O)O)NC(=O)[C@H](CO)NC(=O)[C@@H](NC(=O)[C@H](Cc1ccccc1)NC(=O)[C@@H](NC(=O)CNC(=O)[C@H](CCC(=O)O)NC(=O)[C@]1(C)CCCN1C(=O)[C@@H](N)Cc1ccc(O)cc1)[C@@H](C)O)[C@@H](C)O)[C@@H](C)CC)[C@@H](C)CC)C(=O)N[C@@H](CCC(=O)O)C(=O)NCC(=O)NCC(=O)N1CCC[C@H]1C(=O)N[C@@H](CO)C(=O)N[C@@H](CO)C(=O)NCC(=O)N[C@@H](C)C(=O)N1CCC[C@H]1C(=O)N1CCC[C@H]1C(=O)N1CCC[C@H]1C(=O)N[C@@H](CO)C(N)=O` [Example 87]: the EC50 amounted to 0.0801 nM in test [1] and 0.0945 nM in test [2]. For the same molecule, the Ki turned out to be 0.034 nM at human GIP receptor, 1.79 nM at human GLP-1R and 278 nM at human Gcg receptor.

For the molecule `CC[C@H](C)[C@H](NC(=O)[C@H](CC(C)C)NC(=O)[C@H](Cc1ccc(O)cc1)NC(=O)[C@H](CCC(=O)O)NC(=O)[C@@H](NC(=O)[C@H](Cc1ccccc1)NC(=O)[C@H](C)NC(=O)C(C)(C)NC(=O)[C@H](CCC(N)=O)NC(=O)[C@H](C)NC(=O)[C@H](CCCCNC(=O)COCCOCCNC(=O)COCCOCCNC(=O)CC[C@H](NC(=O)CCCCCCCCCCCCCCCCCCC(=O)O)C(=O)O)NC(=O)[C@H](CCCCN)NC(=O)[C@H](CC(=O)O)NC(=O)[C@H](CC(C)C)NC(=O)[C@H](CC(C)C)NC(=O)[C@@H](NC(=O)[C@H](CO)NC(=O)[C@H](Cc1ccc(O)cc1)NC(=O)[C@H](CC(=O)O)NC(=O)[C@H](CO)NC(=O)[C@@H](NC(=O)[C@H](Cc1ccccc1)NC(=O)[C@@H](NC(=O)CNC(=O)[C@H](CCC(=O)O)NC(=O)[C@@H]1CCCN1C(=O)[C@@H](N)Cc1ccc(O)cc1)[C@@H](C)O)[C@@H](C)O)[C@@H](C)CC)[C@@H](C)CC)C(=O)N[C@@H](CCC(=O)O)C(=O)NCC(=O)NCC(=O)N1CCC[C@H]1C(=O)N[C@@H](CO)C(=O)N[C@@H](CO)C(=O)NCC(=O)N[C@@H](C)C(=O)N1CCC[C@H]1C(=O)N1CCC[C@H]1C(=O)N1CCC[C@H]1C(=O)N[C@@H](CO)C(N)=O` [Example 88] (H-YPEGTFTSDYSILLDKK([AEEA-AEEA-γGlu-C20 diacid])AQ[Aib]AFIEYLIEGGPSSGAPPPS-NH2), the 50% effective concentration (EC50) turned out to be 0.64 nM in test [1] and 0.475 nM in test [2]. Also, the inhibition constant Ki came to 0.0717 nM at human GIP receptor, 4.24 nM at human GLP-1R and 545 nM on human Gcg receptor.

Take `CC[C@H](C)[C@H](NC(=O)[C@H](CC(C)C)NC(=O)[C@H](Cc1ccc(O)cc1)NC(=O)[C@H](CCC(=O)O)NC(=O)[C@@H](NC(=O)[C@H](Cc1ccccc1)NC(=O)[C@H](C)NC(=O)C(C)(C)NC(=O)[C@H](CCC(N)=O)NC(=O)[C@H](C)NC(=O)[C@H](CCCCNC(=O)COCCOCCNC(=O)COCCOCCNC(=O)CC[C@H](NC(=O)CCCCCCCCCCCCCCCCCCC(=O)O)C(=O)O)NC(=O)[C@H](CCCCN)NC(=O)[C@H](CC(=O)O)NC(=O)[C@H](CC(C)C)NC(=O)[C@H](CC(C)C)NC(=O)[C@@H](NC(=O)[C@H](CO)NC(=O)[C@H](Cc1ccc(O)cc1)NC(=O)[C@H](CC(=O)O)NC(=O)[C@H](CO)NC(=O)[C@@H](NC(=O)[C@H](Cc1ccccc1)NC(=O)[C@@H](NC(=O)CNC(=O)[C@H](CCCC(=O)O)NC(=O)C(C)(C)NC(=O)[C@@H](N)Cc1ccc(O)cc1)[C@@H](C)O)[C@@H](C)O)[C@@H](C)CC)[C@@H](C)CC)C(=O)N[C@@H](CCC(=O)O)C(=O)NCC(=O)NCC(=O)N1CCC[C@H]1C(=O)N[C@@H](CO)C(=O)N[C@@H](CO)C(=O)NCC(=O)N[C@@H](C)C(=O)N1CCC[C@H]1C(=O)N1CCC[C@H]1C(=O)N1CCC[C@H]1C(=O)N[C@@H](CO)C(N)=O` [Example 89]: the results for the EC50 in test [1] and in test [2] were 0.335 nM and 0.119 nM, respectively. Besides, the figures for the inhibition constant Ki at human GIP receptor, on human GLP-1R and on human Gcg receptor were 0.045 nM, 2.64 nM and 324 nM, respectively.

For `CC[C@H](C)[C@H](NC(=O)[C@H](CC(C)C)NC(=O)[C@H](Cc1ccc(O)cc1)NC(=O)[C@H](CCC(=O)O)NC(=O)[C@@H](NC(=O)[C@H](Cc1ccccc1)NC(=O)[C@H](C)NC(=O)C(C)(C)NC(=O)[C@H](CCC(N)=O)NC(=O)[C@H](C)NC(=O)[C@H](CCCCNC(=O)COCCOCCNC(=O)COCCOCCNC(=O)CC[C@H](NC(=O)CCCCCCCCCCCCCCCCCCC(=O)O)C(=O)O)NC(=O)[C@H](CCCCN)NC(=O)[C@H](CC(=O)O)NC(=O)[C@H](CC(C)C)NC(=O)[C@H](CC(C)C)NC(=O)[C@@H](NC(=O)[C@H](CO)NC(=O)[C@H](Cc1ccc(O)cc1)NC(=O)[C@H](CC(=O)O)NC(=O)[C@H](CO)NC(=O)[C@@H](NC(=O)[C@H](Cc1ccccc1)NC(=O)[C@@H](NC(=O)CNC(=O)[C@H](CC(N)=O)NC(=O)C(C)(C)NC(=O)[C@@H](N)Cc1ccc(O)cc1)[C@@H](C)O)[C@@H](C)O)[C@@H](C)CC)[C@@H](C)CC)C(=O)N[C@@H](CCC(=O)O)C(=O)NCC(=O)NCC(=O)N1CCC[C@H]1C(=O)N[C@@H](CO)C(=O)N[C@@H](CO)C(=O)NCC(=O)N[C@@H](C)C(=O)N1CCC[C@H]1C(=O)N1CCC[C@H]1C(=O)N1CCC[C@H]1C(=O)N[C@@H](CO)C(N)=O` [Example 90] (H-Y[Aib]NGTFTSDYSILLDKK([AEEA-AEEA-γGlu-C20 diacid])AQ[Aib]AFIEYLIEGGPSSGAPPPS-NH2; N-terminus assumed), the values for the concentration giving a half-maximal response (EC50) in test [1] and in test [2] were 0.532 nM and 0.0361 nM, respectively. Also, the figures for the inhibition constant Ki at human GIP receptor, at human GLP-1R and on human Gcg receptor were 0.0472 nM, 4.76 nM and 245 nM, respectively.

A word on the EC50: it is the concentration at which the effect is half-maximal. One may read the Ki as the dissociation constant of the complex between target and ligand, obtained from inhibition or displacement.
